Measured values published in patent publication US9301961B2, “Autoimmune and inflammatory disorder therapy” (Katholieke Universiteit Leuven, K.U. Leuven R&D, priority 2011, dated 2016).
pIC50: −log10 of the molar value. Where two headings read alike, the source gives them in different places.

Key:
[1] = test system: Peripheral blood mononuclear cells (PBMCs) mixed with mitomycin C treated RPMI1788 cells; experiment: Mixed lymphocyte reaction (MLR) assay, 3H-thymidine uptake
Description: In the MLR assay PBMCs from two individuals are mixed together in tissue culture for several days. […] In the one-way MLR test, the mononuclear cells from one of the individuals are inactivated (usually by treatment with mitomycin C or irradiation), thereby allowing only the untreated remaining population of mononuclear cells, such as lymphocytes, to proliferate in response to foreign histocompatibility antigens.
The immunosuppressive effect of test compounds was also investigated using MLR assays. Peripheral blood mononuclear cells (PBMCs) were isolated from heparinized blood of healthy donors by density-gradient centrifugation over Lymphoprep. […] RPMI1788 cells were treated with 30 μg/mL mitomycin C for 20 min at 37° C., washed four times with medium, and finally suspended in complete RPMI medium to a density of 0.45×10^6 cells/mL. An amount of 100 μL of each cell suspension was mixed with 20 μL of diluted compound. The mixed cells were cultured at 37° C. for 6 days in 5% CO2. […] Thereafter, the cells were harvested on glass filter paper and the counts per minute (cpm) determined in a liquid scintillation counter.

[2] = target: PI4KIIIβ (PI4KB, PI4K beta) (Homo sapiens, UniProt Q9UBF8); experiment: Commercial kinase activity assay (Invitrogen, ADP TR-FRET); settings: for inhibition at 10 µM: read-out: % inhibition of PI4KIIIβ @ 10 μM
Sequence of PI4KIIIβ (PI4KB, PI4K beta) (Q9UBF8 whole entry): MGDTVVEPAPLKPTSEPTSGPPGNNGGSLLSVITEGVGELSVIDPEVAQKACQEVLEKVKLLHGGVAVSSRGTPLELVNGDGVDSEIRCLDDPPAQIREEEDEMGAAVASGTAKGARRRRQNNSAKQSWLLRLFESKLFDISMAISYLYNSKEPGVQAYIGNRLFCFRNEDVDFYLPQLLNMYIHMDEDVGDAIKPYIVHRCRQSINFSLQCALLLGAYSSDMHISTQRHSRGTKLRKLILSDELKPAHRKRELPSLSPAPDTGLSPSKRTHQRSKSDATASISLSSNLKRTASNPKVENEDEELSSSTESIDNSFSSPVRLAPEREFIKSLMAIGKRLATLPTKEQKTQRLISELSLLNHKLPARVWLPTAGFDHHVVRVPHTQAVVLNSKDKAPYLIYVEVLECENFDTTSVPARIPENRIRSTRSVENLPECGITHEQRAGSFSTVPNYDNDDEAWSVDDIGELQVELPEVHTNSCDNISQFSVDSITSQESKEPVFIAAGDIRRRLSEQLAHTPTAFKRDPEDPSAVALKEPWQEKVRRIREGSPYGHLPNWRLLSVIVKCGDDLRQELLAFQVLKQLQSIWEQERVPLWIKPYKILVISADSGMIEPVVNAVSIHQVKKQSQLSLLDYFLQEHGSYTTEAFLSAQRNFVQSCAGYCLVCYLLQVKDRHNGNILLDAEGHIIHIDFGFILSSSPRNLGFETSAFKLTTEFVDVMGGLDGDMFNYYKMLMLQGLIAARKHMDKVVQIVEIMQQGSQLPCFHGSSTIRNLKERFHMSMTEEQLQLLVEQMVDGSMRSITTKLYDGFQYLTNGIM

[3] = target: T1, PI4KA (PI4K alpha) (Homo sapiens, UniProt P42356); experiment: as above; format: biochemical; settings: 10 μM test compound
T1 construct: purchased Invitrogen
T1 sequence (P42356 whole entry): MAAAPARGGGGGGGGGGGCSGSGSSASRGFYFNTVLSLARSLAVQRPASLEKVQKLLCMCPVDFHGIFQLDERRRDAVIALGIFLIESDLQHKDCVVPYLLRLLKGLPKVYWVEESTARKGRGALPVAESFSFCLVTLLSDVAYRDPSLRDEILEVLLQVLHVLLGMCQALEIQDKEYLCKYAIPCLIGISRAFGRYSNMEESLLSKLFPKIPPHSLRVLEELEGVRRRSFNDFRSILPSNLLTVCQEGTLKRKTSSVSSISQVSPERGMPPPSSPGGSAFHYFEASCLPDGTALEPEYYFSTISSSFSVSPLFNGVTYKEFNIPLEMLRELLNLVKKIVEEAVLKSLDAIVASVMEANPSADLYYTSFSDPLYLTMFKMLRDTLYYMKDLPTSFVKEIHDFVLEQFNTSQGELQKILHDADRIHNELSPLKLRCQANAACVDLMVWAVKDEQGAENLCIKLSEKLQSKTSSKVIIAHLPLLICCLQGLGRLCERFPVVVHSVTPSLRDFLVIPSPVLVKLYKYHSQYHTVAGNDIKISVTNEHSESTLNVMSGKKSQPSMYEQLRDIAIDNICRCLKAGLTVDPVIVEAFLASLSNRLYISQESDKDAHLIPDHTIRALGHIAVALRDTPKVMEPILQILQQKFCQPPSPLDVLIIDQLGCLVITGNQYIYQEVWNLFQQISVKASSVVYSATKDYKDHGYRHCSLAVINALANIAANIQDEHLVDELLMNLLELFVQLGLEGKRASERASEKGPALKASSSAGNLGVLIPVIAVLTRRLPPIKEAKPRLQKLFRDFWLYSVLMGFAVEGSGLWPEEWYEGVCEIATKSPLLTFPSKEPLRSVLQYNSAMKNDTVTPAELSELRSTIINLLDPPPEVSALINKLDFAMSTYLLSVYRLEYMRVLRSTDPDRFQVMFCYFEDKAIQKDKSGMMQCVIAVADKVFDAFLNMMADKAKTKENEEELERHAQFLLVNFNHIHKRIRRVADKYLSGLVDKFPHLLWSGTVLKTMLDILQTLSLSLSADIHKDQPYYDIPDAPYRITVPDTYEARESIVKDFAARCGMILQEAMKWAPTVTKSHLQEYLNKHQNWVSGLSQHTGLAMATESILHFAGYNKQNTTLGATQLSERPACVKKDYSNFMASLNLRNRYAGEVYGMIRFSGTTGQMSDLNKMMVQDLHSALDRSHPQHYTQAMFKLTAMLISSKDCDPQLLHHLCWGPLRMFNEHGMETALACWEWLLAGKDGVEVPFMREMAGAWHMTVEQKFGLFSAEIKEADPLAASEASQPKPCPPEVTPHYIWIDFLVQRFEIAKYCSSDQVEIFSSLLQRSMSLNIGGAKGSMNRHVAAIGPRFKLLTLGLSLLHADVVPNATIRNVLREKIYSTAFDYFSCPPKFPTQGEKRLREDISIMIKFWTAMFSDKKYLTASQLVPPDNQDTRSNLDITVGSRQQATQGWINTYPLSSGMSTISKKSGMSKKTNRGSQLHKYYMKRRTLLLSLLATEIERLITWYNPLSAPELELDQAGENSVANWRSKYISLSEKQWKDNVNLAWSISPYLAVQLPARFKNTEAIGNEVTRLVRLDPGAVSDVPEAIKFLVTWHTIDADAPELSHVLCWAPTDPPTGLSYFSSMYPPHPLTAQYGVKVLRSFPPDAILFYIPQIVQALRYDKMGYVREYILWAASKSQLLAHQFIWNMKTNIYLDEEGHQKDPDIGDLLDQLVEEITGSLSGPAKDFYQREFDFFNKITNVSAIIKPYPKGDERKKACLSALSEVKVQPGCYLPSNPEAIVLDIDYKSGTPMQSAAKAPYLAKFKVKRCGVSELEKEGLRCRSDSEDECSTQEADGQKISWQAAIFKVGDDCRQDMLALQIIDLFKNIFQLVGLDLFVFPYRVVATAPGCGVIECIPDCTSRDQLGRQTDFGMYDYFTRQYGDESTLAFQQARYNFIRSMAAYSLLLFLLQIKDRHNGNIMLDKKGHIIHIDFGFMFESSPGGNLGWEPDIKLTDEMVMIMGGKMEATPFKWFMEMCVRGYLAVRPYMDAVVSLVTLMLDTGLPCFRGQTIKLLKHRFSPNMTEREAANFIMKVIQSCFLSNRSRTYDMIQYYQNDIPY

[4] = target: T2, LOK (h) (Homo sapiens, UniProt O94804); experiment: Commercial kinase activity assay (Millipore, 33P-ATP filter); format: biochemical; settings: 10 μM test compound
T2 construct: purchased Millipore
T2 sequence (O94804 whole entry): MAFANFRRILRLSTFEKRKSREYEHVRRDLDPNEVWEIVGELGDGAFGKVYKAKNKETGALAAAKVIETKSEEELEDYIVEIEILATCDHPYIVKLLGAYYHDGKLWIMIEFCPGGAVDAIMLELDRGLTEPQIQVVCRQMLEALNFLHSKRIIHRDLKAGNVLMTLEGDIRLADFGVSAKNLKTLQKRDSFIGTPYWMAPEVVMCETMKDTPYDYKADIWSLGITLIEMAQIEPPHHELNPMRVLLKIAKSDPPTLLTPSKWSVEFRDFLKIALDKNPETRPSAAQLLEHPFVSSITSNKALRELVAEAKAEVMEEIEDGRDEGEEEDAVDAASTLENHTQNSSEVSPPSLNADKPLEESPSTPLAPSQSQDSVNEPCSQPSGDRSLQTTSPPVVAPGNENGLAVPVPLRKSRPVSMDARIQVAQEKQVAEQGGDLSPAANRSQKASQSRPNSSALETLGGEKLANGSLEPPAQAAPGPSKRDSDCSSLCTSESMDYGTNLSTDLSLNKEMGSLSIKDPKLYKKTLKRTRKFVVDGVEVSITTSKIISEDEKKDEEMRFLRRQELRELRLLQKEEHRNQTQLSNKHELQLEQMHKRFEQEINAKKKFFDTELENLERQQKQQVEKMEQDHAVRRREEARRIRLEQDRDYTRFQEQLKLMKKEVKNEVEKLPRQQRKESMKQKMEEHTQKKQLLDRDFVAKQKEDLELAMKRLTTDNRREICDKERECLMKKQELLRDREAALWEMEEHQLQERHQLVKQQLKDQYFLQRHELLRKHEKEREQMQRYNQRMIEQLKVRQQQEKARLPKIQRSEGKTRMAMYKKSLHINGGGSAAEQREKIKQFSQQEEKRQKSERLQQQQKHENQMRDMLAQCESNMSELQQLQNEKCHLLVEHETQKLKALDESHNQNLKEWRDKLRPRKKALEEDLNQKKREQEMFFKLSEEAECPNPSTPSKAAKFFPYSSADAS
Description: (§1) LOK (h) was incubated with 8 mM MOPS pH 7.0, 0.2 mM EDTA, 250 μM […], 10 mM MgAcetate and [γ-^33P-ATP] (specific activity approx. 500 cpm/pmol, concentration as required). The reaction was initiated by the addition of the MgATP mix. After incubation for 40 minutes at room temperature, the reaction was stopped by the addition of 3% phosphoric acid solution. 10 μL of the reaction was then spotted onto a P30 filtermat and washed three times for 5 minutes in 75 mM phosphoric acid and once in methanol prior to drying and scintillation counting. PI3K p110β/p85α (h) PI3K (p110β/p85α) (h) was incubated in assay buffer containing 10 μM phosphatidylinositol-4,5-bisphosphate and MgATP (concentration as required). The reaction was initiated by the addition of the MgATP mix. After incubation for 30 minutes at room temperature, the reaction was stopped by the addition of stop solution containing EDTA and biotinylated phosphatidylinositol-3,4,5-trisphosphate. Finally, detection buffer was added, which contains europium-labelled anti-GST monoclonal antibody, GST-tagged GRP1 PH domain and streptavidinallophycocyanin. The plate was then read in time-resolved fluorescence mode and the homogenous time-resolved fluorescence (HTRF®) signal determined according to the formula HTRF=10000×(Em665nm/Em620 nm). YSK4 (h) YSK4 (h) was incubated with 8 mM MOPS pH 7.0, 0.2 mM EDTA, 250 […], 10 mM MgAcetate and [γ-^33P-ATP] (specific activity approx. 500 cpm/pmol, concentration as required). The reaction was initiated by the addition of the MgATP mix. After incubation for 40 minutes at room temperature, the reaction was stopped by the addition of 3% phosphoric acid solution. 10 μL of the reaction was then spotted onto a P30 filtermat and washed three times for 5 minutes in 75 mM phosphoric acid and once in methanol prior to drying and scintillation counting. PI4KA (PI4K alpha) The 2× PI4KA (PI4K alpha)/PI Lipid Kinase Substrate mixture was prepared in 20 mM Tris, pH 7.5, 0.4% Triton X-100, 5 mM MgCl2, 0.5 mM EGTA. The final 10 μL Kinase Reaction consisted of 75-300 ng PI4KA (PI4K alpha) and 100 μM PI Lipid Kinase Substrate in 7.5 mM HEPES, 10 mM Tris, pH 7.5, 0.2% Triton X-100, 2.5 mM MgCl2, 0.25 mM EGTA. After the 1 hour Kinase Reaction incubation, 5 μL of Detection Mix consisting of a europium labeled anti-ADP antibody, an Alexa Fluor® 647 labeled ADP tracer, and EDTA (to stop the kinase reaction) was added to the assay well. ADP formed by the kinase reaction (in the absence of an inhibitor) displaced the Alexa Fluor® 647 labeled ADP tracer from the antibody, resulting in a decrease in the TR-FRET signal. […] PI4KB (PI4K beta) The 2× PI4KB (PI4K beta)/PI Lipid Kinase Substrate mixture was prepared in 50 mM HEPES pH 7.5, 0.1% CHAPS, 1 mM EGTA, 4 mM MgCl2. […]

[5] = target: T3, YSK4 (h) (Homo sapiens, UniProt Q56UN5); experiment: as above; format: biochemical; settings: 10 μM test compound
T3 construct: purchased Millipore
T3 sequence (Q56UN5 1-1328): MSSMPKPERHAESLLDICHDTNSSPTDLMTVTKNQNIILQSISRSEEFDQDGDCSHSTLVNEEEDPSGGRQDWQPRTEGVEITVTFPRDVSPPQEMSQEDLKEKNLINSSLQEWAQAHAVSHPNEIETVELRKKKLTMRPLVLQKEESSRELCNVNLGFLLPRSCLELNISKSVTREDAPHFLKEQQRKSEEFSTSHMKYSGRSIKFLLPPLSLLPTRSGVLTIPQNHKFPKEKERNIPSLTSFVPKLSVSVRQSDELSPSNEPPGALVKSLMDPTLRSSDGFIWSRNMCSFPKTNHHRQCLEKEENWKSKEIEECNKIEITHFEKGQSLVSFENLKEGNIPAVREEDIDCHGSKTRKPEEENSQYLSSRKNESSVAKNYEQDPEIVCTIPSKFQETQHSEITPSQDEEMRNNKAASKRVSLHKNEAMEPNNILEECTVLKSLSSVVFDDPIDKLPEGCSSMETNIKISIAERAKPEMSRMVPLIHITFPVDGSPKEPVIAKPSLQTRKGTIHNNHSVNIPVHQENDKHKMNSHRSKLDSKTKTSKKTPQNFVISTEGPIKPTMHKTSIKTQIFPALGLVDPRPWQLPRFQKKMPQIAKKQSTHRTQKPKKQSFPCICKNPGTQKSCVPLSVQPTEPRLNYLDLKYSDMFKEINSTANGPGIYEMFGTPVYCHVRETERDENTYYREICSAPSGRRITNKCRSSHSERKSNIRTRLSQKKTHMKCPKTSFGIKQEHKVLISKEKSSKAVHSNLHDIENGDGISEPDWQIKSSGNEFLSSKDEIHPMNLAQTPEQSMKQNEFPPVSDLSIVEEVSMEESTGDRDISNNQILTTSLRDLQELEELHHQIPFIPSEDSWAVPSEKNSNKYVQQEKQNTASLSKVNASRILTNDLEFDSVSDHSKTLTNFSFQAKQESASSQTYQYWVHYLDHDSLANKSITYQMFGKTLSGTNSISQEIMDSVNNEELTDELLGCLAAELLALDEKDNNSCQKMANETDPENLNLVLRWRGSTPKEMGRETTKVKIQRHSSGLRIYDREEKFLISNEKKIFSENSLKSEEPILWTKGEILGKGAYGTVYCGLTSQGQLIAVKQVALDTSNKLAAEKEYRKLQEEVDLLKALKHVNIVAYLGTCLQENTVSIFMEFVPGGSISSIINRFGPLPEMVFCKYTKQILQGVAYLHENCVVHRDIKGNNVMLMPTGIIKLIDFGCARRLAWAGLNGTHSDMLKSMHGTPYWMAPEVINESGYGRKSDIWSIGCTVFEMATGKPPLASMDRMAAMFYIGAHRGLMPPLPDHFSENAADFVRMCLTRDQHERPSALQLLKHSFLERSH
Description: as §1

[6] = target: T4, PI3KCB (PI3K p110β/p85α (h)) (Homo sapiens, UniProt P42338); experiment: Commercial kinase activity assay (Millipore, HTRF); format: biochemical; settings: 10 μM test compound
T4 construct: purchased Millipore
Description: LOK (h) was incubated with 8 mM MOPS pH 7.0, 0.2 mM EDTA, 250 μM […], 10 mM MgAcetate and [γ-^33P-ATP] (specific activity approx. 500 cpm/pmol, concentration as required). The reaction was initiated by the addition of the MgATP mix. After incubation for 40 minutes at room temperature, the reaction was stopped by the addition of 3% phosphoric acid solution. 10 μL of the reaction was then spotted onto a P30 filtermat and washed three times for 5 minutes in 75 mM phosphoric acid and once in methanol prior to drying and scintillation counting. PI3K p110β/p85α (h) PI3K (p110β/p85α) (h) was incubated in assay buffer containing 10 μM phosphatidylinositol-4,5-bisphosphate and MgATP (concentration as required). The reaction was initiated by the addition of the MgATP mix. After incubation for 30 minutes at room temperature, the reaction was stopped by the addition of stop solution containing EDTA and biotinylated phosphatidylinositol-3,4,5-trisphosphate. Finally, detection buffer was added, which contains europium-labelled anti-GST monoclonal antibody, GST-tagged GRP1 PH domain and streptavidinallophycocyanin. The plate was then read in time-resolved fluorescence mode and the homogenous time-resolved fluorescence (HTRF®) signal determined according to the formula HTRF=10000×(Em665nm/Em620 nm). […]

[7] = target: T5, PAK1 (Homo sapiens, UniProt Q13153); experiment: Commercial kinase activity assay (Invitrogen, fluorescence); format: biochemical; settings: 10 μM test compound
T5 construct: made in house; host or cells: E. coli BL21-derived host (T7 phage) or HEK-293
T5 sequence (Q13153 whole entry): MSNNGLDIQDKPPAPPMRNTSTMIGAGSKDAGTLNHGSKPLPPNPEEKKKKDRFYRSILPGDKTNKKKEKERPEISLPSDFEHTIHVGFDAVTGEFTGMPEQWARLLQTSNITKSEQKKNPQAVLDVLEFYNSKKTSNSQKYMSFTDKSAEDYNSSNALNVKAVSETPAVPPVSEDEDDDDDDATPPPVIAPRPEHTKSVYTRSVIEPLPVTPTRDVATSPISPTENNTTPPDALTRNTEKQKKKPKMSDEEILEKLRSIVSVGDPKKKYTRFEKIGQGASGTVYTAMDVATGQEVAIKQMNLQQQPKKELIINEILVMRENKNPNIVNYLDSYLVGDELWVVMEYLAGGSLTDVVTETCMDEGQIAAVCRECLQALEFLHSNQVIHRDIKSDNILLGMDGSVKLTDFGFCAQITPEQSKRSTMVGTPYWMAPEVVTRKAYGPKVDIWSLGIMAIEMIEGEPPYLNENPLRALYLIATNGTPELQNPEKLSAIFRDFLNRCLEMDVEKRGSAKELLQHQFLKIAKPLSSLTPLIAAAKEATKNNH

[8] = test system: collagen-induced arthritis; experiment: Collagen-induced arthritis model; format: in vivo, DBA1 male mice; settings: 40 mg/kg/d oral gavage
Description: The activity of test compound in an in vivo model, the collagen-induced arthritis model, was investigated. […] DBA1 male mice, 8-10 weeks old, were distributed in 2 groups according to the treatment. Twelve animals received daily treatment with vehicle (1% methylcellulose), twelve others received compound (3) at 40 mg/kg/d in 1% methylcellulose. The treatment initiation started the day before the intradermal injection at the base of the tail of 100 μg of emulsified chicken collagen II in presence of complete Freund adjuvant and added heat-killed Mycobacterium butyricum. Daily inspection of the mice was performed to weight animals and quantify disease score according to the following scale (score 0: normal; score 1: redness and/or swelling in one joint; score 2: redness and/or swelling in more than one joint; score 3: redness and/or swelling in the entire paw; score 4: deformity and/or ankylosis). On the day of sacrifice (day 42) serum were collected and anti-collagen II antibody titers were determined by ELISA. Joints were harvested, fixed in 6% paraformaldehyde, decalcified in formic acid 6% for 48 h, sliced and stained by hematoxylin and eosin staining. Hyperplasia of the synovium, infiltration of mono and polymorphonuclear cells and pannus formation parameters were scored blindly.

[9] = test system: cardiac allograft rejection; experiment: Cardiac allograft transplantation and tolerance model, treatment day 0 to day 30 (Example 9)
Description: The activity of test compound in a mouse model of cardiac allograft transplantation experiment was investigated. […] Animals with beating graft at day 60 were rechallenged with a second graft from the same strain donor or from a third party donor.
To evaluate the operational tolerance phenotype, animals with functional graft at day 60 were challenged with a second graft from the same donor strain or from a third party. No treatment was applied.
Inbreed C57BL/6 H-2^b and Balb/c H-2^d female mice, 8-10 weeks old, 20-25 g, were used as donor and recipient, respectively. Heterotopic heart transplantation was performed by implanting the donor heart on the neck of recipients using conventional microsurgery techniques. Graft beating was checked daily by inspection and palpation. Cessation of beating indicated graft rejection. The third party donor was C3H H-2^k female mice, 8-10 weeks old, 20-25 gr.
Treatment started the day of transplantation (day 0) until day 30 post transplantation.

[10] = test system: cardiac allograft rejection; experiment: Cardiac allograft transplantation model, treatment day -1 to day 30 (Examples 7 and 8); format: in vivo, mice (C57BL/6 donor, Balb/c recipient); settings: Example 8
Description: Inbreed C57BL/6 H-2b and Balb/c H-2d female mice, 8-10 weeks old, 20-25 g, were used as donor and recipient, respectively. Heterotopic heart transplantation was performed by implanting the donor heart on the neck of recipients using conventional microsurgery techniques. Graft beating was checked daily by inspection and palpation. Cessation of beating indicated graft rejection, which was confirmed by histological examination. Housing and all experimental animal procedures were approved by the Institutional Animal Care and Research Advisory Committee of the KU Leuven.

[11] = test system: murine splenocytes stimulated with α-CD3 antibody; experiment: Cytokine secretion after α-CD3 stimulation; format: cell-based, Balb/C mice; settings: Mus musculus, Splenocyte, 24 h
Description: The ability of test compounds to inhibit cytokine release by murine splenocytes after stimulation with α-CD3 antibody was also investigated.
2×10^6 splenocytes from Balb/C female mice, 8-10 weeks old in 220 μl of complete medium were stimulated with 0.1 μg of hamster anti mouse CD3ε antibody in presence of various concentrations of test compounds. After 24 h of incubation at 37° C., 5% CO2, supernatant were collected and cytokine titers were determined by flow cytometry according manufacturer protocols (MCB United States, Arlington, Mass., USA).
The results are shown in FIG. 1 compared to a DMSO negative control (▾). […].

[12] = RPMI-1788, 144 h, read-out: IC50 MLR, 6 days culture
[13] = animals with functional graft at day 60, no treatment, n=2

With `CC(=O)Nc1nc(C)c(-c2ccc(Cl)c(S(=O)(=O)NCCO)c2)s1` [PIK93, reference compound] the pIC50 [1, 12] was 6.40.
In the case of `COc1ccc(-c2c(C)nn3c(NCCN4CCOCC4)cc(C)nc23)cc1OC` [T-00127-HEV1, reference compound], the pIC50 ([1]; RPMI-1788, 144 h, read-out: IC50 MLR) was 6.07.
`Cc1cccc(NC(=O)N2CCN(c3nc(N)nc4sc(-c5cccnc5)nc34)CC2)c1` [formula (2), 4-[5-amino-2-(pyridin-3-yl)thiazolo[5,4-d]pyrimidin-7-yl]-N-m-tolylpiperazine-1-carboxamide] was tested, and the pIC50 [2] was 7.84, the inhibition at 10 µM [2] was 99.5% and the Kinase activity [3] was 90 percentage of control. For the same compound, the Kinase activity [4] was 98 percentage of control, the Kinase activity [5] was 79 percentage of control and the Kinase activity [6] was 82 percentage of control. The Kinase activity [7] was 108 percentage of control.
In the case of `Cc1ccc(NC(=O)N2CCN(c3nc(N)nc4sc(-c5cccnc5)nc34)CC2)cc1` [formula (3)], the “histological scores (hyperplasia, infiltration, pannus)” value ([8]; joints day 42) was “reduced”, the “onset of arthritic symptoms” value ([8]; preventive, vs vehicle) was “delay the onset of arthritic symptoms” and the symptom severity ([8]; preventive, vs vehicle) was “decrease symptom severity”. The “anti-CII IgG titre” value ([8]; serum day 42) was “reduced”, the “grafts with prolonged survival at day 30” value ([9]; Example 9, each group (40, 50, 60 mg/kg/d)) was 3 out of 6 and the “day of rejection of second graft from third party donor” value [9, 13] was 8 days. The “time second graft from same donor strain was functional” value [9, 13] was “more than 90 days”, the “Surviving days (cardiac graft)” value ([10]; 20 mg/kg/d daily gavage, individual animals, 20 mg/kg/day) was “up to 13 days” and the “grafts continuously functioning after stopping the treatment on day 30” value ([10]; 40 mg/kg per day) was 3/4. The “grafts with continuous survival while treatment continued” value ([10]; 40 mg/kg per day) was 4/6, the pIC50 ([11]; read-out: IC50 for inhibition of IFNγ release) was over 9.00 and the pIC50 ([11]; read-out: IC50 for inhibition of IL2 release) was over 9.00.
`Nc1nc(N2CCN(C(=O)COc3ccc(F)cc3)CC2)c2nc(-c3cccnc3)sc2n1` [formula (4)] was tested, and the pIC50 [2] was 7.66, the inhibition at 10 µM [2] was 95% and the pIC50 [1, 12] was over 7.30. For the same compound, the pIC50 ([1]; read-out: IC50 MLR, 6 days culture) was 7.60.
